According to patent publication US20080311126A1, “Antisense Oligonucleotides Directed to Ribonucleotide Reducatase R2 and Uses Thereof in Combination Therapies for the Treatment of Cancer” (Genesense Technologies, Inc, priority 2004, published 2008):
Entries after “also recorded” stand apart in the source; their conditions may differ.

Tests used:
[1] = test system: MDA-MB435-To.1 human Taxol-resistant breast adenocarcinoma cells; test: MDA-MB435-To.1 Taxol-resistant breast adenocarcinoma, fat pad injection in SCID mice; type: in vivo; design: Tumour weight as % of saline control: concentration or dose not given beside the values; settings: for Tumour weight as % of saline control: MDA-MB435-To.1 (breast), Taxol resistance
Experimental: MDA-MB435-To.1 human Taxol-resistant breast adenocarcinoma cells (4×10^6 cells in […] of PBS) were injected into the fat pad (inside of right leg) of 6-7 weeks old female SCID mice. After the size of tumour reached an approximate volume of 100 mm^3, 20 days post tumour cell injection, SEQ ID NO:1 was administered by bolus infusion into the tail vein every other day at 10 mg/kg 15 times. Control animals received saline alone for the same period. Antitumour effect of SEQ ID NO:1 was further compared to that of Cisplatin or Taxol alone. Cisplatin was administered intravenously once a week for four weeks at a dose of 4 mg/kg. Taxol was administered intravenously once a week for four weeks at a dose of 20 mg/kg.
Antitumour activities were estimated by the inhibition of tumour volume, which was measured with caliper. Bach point represents mean tumour volume calculated from 9-10 animals per experimental group. […] As expected, treatment with Taxol during the same period was ineffective against Taxol-resistant tumour.
MDA-MB435-To.1 human Taxol-resistant breast adenocarcinoma cells (4×10^6 cells in 100 μl of PBS) were injected into the fat pad (inside of right leg) of 6-7 weeks old female CB-17 SCID mice. After the size of tumour reached an approximate volume of 100 mm^3, 17 days post tumour cell injection, SEQ ID NO:1 was administered by bolus infusion into the tail vein every other day at 10 mg/kg. Control animals received saline alone for the same period. Antitumour effect of SEQ ID NO:1 was compared to that of Cisplatin alone and in combination. Cisplatin was administered intravenously once a week for four weeks at a dose of 4 mg/kg. Antitumour activities were estimated by the inhibition of tumour volume, which was measured with caliper. Each point represents mean tumour volume calculated from 10 animals per experimental group. At the end of the study the animals were sacrificed and tumours weighed.

Human Liver Carcinoma = test: Tumour growth assay, human liver carcinoma in CD-1 nude mice; type: in vivo
Hela S3 cells = test: Relative colony forming efficiency, lipofectin +/- oligonucleotide 4 hours; type: cell-based, human; settings: Hela S3 cervix carcinoma cells; averages of 2-8 determinations
Outline: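 Survival is given as percent of lipofectin-treated controls, scored as methylene blue-stained colonies after 7–10 days of regrowth. Beforehand, HeLa S3 cultures received a 4 h lipofectin-mediated pulse of oligonucleotide, normally at 0.2 μM.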

[2] = test system: Human taxol-resistant promyelocytic leukaemia cells (HL-60); test: HL-60 taxol-resistant promyelocytic leukaemia xenograft in SCID mice; type: in vivo
Experimental: Human taxol-resistant promyelocytic leukaemia cells (HL-60) (7×10^6 cells in 100 μl of PBS) were injected into the right flank of 6-7 weeks old female SCID mice. After the size of tumour reached an approximate volume of 100 mm^3, 10 days post tumour cell injection, SEQ ID NO:1 was administered by bolus infusion into the tail vein every other day at 10 mg/kg. Control animals received saline alone for the same period. The anti-tumour effect of SEQ ID NO:1 was further compared to that of taxol. Taxol was administered i.p. once a week at a dose of 10 mg/kg. Anti-tumour activity was estimated by the inhibition of tumour volume, which was measured with caliper. Each point represents mean tumour volume calculated from 10 animals per experimental group. In addition animals were sacrificed and tumour weights taken at the end of the study.

Erythroleukemia = test: Survival assay, erythroleukemia in mice; type: in vivo, murine
Experimental: For the study of the effect of the compositions on leukaemias, the animals are grafted with a particular number of cells, and the anti-tumour activity is determined by the increase in the survival time of the treated mice relative to the controls.

[3] = test system: LS513 multi-drug resistant colon carcinoma cells; test: LS513 multi-drug resistant colon carcinoma xenograft in SCID mice; type: in vivo, human
Experimental: LSS13 multi-drug resistant colon carcinoma cells (1×10^7 cells in 100 μl of PBS) were subcutaneously injected into the right flank of 6-7 weeks old female SCID mice. After the size of tumour reached an approximate volume of […], 8 days post tumour cell injection, SEQ ID NO:1 was administered by bolus infusion into the tail vein every other day at 10 mg/kg. Control animals received saline alone for the same period. Antitumour effect of SEQ ID NO:1 was further compared to that of CPT-11 alone or in combination. CPT-11 was administered i.p. for 5 days at a dose of 20 mg/kg/day. Antitumour activities were estimated by the inhibition of tumour volume, which was measured with caliper. Each point represents mean tumour volume calculated from 10 animals per experimental group. Tumour weights were measured after animals were sacrificed at the end of the treatment. These cells are not resistant to CPT-11 which was used as a positive control.

Sequence: GGCTAAATCGCTCCACCAAG (chemistry not given here) [SEQ ID NO: 1, antisense oligonucleotide that hybridizes to the coding region of human ribonucleotide reductase R2 mRNA]
- antitumour effect (tumour volume) ([1]; Example 13.5, SEQ ID NO:1 10 mg/kg 15 times, Cisplatin 4 mg/kg, Taxol 20 mg/kg i.v. weekly for four weeks): significant reduction of tumour weight; also recorded: superior to the inhibitory effects observed with Cisplatin
- antitumour effect (tumour volume, tumour weight) ([1]; Example 13.6, CB-17 SCID mice, SEQ ID NO:1 10 mg/kg every other day, Cisplatin 4 mg/kg i.v. weekly): significant reduction of tumour weight; also recorded: superior to the inhibitory effects observed with Cisplatin
- Tumour weight as % of saline control ([1]; CB-17/SCID): 37%
- Tumour weight as % of saline control ([1]; SCID): 42%
- Inhibition of tumour weight (Human Liver Carcinoma): approximately 65%
- Reduced relative colony forming efficiency, Hela S3 (% inhibition of colony forming ability) (Hela S3 cells): 67.92%
- Tumour weight as % of saline control ([2]; HL-60 (leukemia), Taxol resistance, SCID): 38%
- anti-tumour effect (tumour volume, tumour weight) ([2]; SEQ ID NO:1 10 mg/kg every other day, Taxol 10 mg/kg i.p. weekly): significant reduction of tumour weight
- effect of treatment on survival (Erythroleukemia; Erythroleukemia): Treatment prolonged survival
- survival of treated mice (Erythroleukemia; untreated died within 36 days, one treated mouse died at day 22): Treated mice survived beyond day 71
- Tumour weight as % of saline control ([3]; LS513 (colon) multi-drug resistant (CPT-11 sensitive), SCID): 49%
- antitumour effect (tumour volume, tumour weight) ([3]; SEQ ID NO:1 10 mg/kg every other day, CPT-11 20 mg/kg/day i.p. 5 days): significant delay of tumour growth; also recorded: as effective as CPT-11
